Measured values as given in patent publication US7186743B2, “Substituted pyrazolyl compounds for the treatment of inflammation” (Pharmacia Corporation, priority 2001, dated 2007).
Where a name gives a salt, the structure may show the parent alone.

Biological target: T1, IKK2 (Homo sapiens, UniProt O14920)
T1 construct: made in house; host or cells: insect cells (baculovirus, pFastBac; SF9)
T1 sequence (O14920 1-756): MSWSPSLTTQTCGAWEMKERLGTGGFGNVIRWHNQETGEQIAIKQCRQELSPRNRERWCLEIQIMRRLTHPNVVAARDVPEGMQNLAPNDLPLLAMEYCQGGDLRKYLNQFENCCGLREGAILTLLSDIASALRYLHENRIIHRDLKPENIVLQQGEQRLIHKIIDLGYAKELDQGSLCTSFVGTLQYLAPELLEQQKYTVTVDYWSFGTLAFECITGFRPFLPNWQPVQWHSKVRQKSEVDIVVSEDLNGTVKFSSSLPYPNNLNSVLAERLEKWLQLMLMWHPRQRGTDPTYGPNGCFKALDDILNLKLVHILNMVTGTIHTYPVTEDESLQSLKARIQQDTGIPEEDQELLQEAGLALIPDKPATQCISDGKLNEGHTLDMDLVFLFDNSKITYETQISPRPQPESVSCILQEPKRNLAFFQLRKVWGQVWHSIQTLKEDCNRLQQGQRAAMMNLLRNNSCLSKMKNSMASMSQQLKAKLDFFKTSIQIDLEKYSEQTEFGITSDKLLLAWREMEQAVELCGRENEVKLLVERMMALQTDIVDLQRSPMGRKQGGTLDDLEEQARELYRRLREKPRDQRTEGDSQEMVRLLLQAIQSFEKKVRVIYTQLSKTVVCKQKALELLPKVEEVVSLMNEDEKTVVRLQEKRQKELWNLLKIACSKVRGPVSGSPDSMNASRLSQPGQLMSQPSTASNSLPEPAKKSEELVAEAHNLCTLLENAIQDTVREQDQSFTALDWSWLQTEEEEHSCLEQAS
Test: IKKβ Resin Enzyme Assay (IKK2 resin)
Type: biochemical
Conditions: Table 1; read-out: IKK2-resin
Text: cDNAs of human IKK1 and IKK2 were amplified by reverse transcriptase-polymerase chain reaction from human placental RNA (Clonetech). hIKK1 was subcloned into pFastBac HTa (Life Technologies) and expressed as N-terminal His6-tagged fusion protein. The hIKK2 cDNA was amplified using a reverse oligonucleotide primer which incorporated the peptide sequence for a FLAG-epitope tag at the C-terminus of the IKK2 coding region ([…]). The hIKK2:FLAG cDNA was subcloned into the baculovirus vector pFastBac. The rhIKK2 ([…]) mutant was constructed in the same vector used for wild type rhIKK2 using a QuikChange™ mutagenesis kit (Stratagene). Viral stocks of each construct were used to infect insect cells grown in 40 L suspension culture. […] Cell lysates were stored at −80° C. until purification of the recombinant proteins was undertaken as described below.
A 10-liter culture of baculovirus-expressing IKK2 tagged with FLAG peptide was centrifuged and the cell pellet (MOI=0.1 and I=72 hrs) was re-suspended in buffer A. These cells were microfluidized, and centrifuged at 100,000×g for 45 min. Supernatant was passed over a G-25 column equilibrated with Buffer A. Protein peak was collected and incubated with anti-FLAG affinity resin on a rotator overnight in buffer B. The resin was washed in batch with 10–15 bed volumes of buffer C. Washed resin was poured into a column and rhIKK2 homodimer was eluted using 5 bed volumes of buffer B containing FLAG peptide. 5 mM DTT, 0.1% NP-40 and BSA (concentrated to 0.1% in final amount) was added to the eluted enzyme before concentrating in using an Amicon membrane with a molecular weight cut-off of 30 kDa. Enzyme was aliquoted and stored at −80° C.
IKKβ kinase activity was measured using a biotinylated IκBα peptide ([…]32-Gly-Leu-Asp-Ser36-Met-Lys-Asp-Glu-Glu) (American Peptide Co.). […] ATP (Amersham) (about 1×10^5 cpm), 1 μM ATP (Sigma), 1 mM DTT (Sigma), 2 mM MgCl2 (Sigma), 2 mM MnCl2 (Sigma), 10 mM NaF (Sigma), 25 mM Hepes (Sigma) buffer, pH 7.6 and 20 μl enzyme solution and 10 ul inhibitor in a final volume of 50 μl. After incubation at 25° C. for 30 min, 150 μl resin (Dowex anion-exchange resin AG1X8 200–400 mesh) in 900 mM formate, pH 3.0 was added to each well to stop the reaction. Resin was allowed to settle for one hour and 50 ul of supernatant was removed to a Micolite-2 flat bottom plate (Dynex). 150 μl of scintillation fluid (Microscint 40) (Packard) was added to each well. Incorporation of [γ-^33P] ATP was measured using a Top-Count NXT (Packard).

| SMILES | IC50 [nM] |
| --- | --- |
| CN(C)S(=O)(=O)c1ccc(-n2nc(C(N)=O)c3c2-c2cc(NC(=O)c4ccccc4Cl)ccc2CC3)cc1 [Example 50, 8-[(2-chlorobenzoyl)amino]-1-{4-[(dimethylamino)sulfonyl]phenyl}-4,5-dihydro-1H-benzo[g]indazole-3-carboxamide] | ≤ 1000 |

Same assay, conditions: Table 2; read-out: IKK Resin IC50

| SMILES | IC50 [nM] |
| --- | --- |
| CS(=O)(=O)c1ccc(-n2nc(C(N)=O)c3c2-c2cc(NC(=O)c4ccccc4C(F)(F)F)ccc2CC3)cc1 [Example 93, 1-[4-(methylsulfonyl)phenyl]-8-{[2-(trifluoromethyl)benzoyl]amino}-4,5-dihydro-1H-benzo[g]indazole-3-carboxamide] | ≤ 1000 |
| Cc1ccccc1C(=O)Nc1ccc2c(c1)-c1c(c(C(N)=O)nn1-c1ccc(S(C)(=O)=O)cc1)CC2 [Example 94, 8-[(2-methylbenzoyl)amino]-1-[4-(methylsulfonyl)phenyl]-4,5-dihydro-1H-benzo[g]indazole-3-carboxamide] | ≤ 1000 |
| CS(=O)(=O)c1ccc(-n2nc(C(N)=O)c3c2-c2cc(NC(=O)c4ccccc4Cl)ccc2CC3)cc1 [Example 95, 8-[(2-chlorobenzoyl)animo]-1-[4-(methylsulfonyl)phenyl]-4,5-dihydro-1H-benzo[g]indazole-3-carboxamide] | ≤ 1000 |
| CS(=O)(=O)c1ccc(-n2nc(C(N)=O)c3c2-c2cc(NC(=O)c4cccc(Cl)c4Cl)ccc2CC3)cc1 [Example 96, 8-[(2,3-dichlorobenzoyl)amino]-1-[4-(methylsulfonyl)phenyl]-4,5-dihydro-1H-benzo[g]indazole-3-carboxamide] | ≤ 1000 |
| CS(=O)(=O)c1ccc(-n2nc(C(N)=O)c3c2-c2cc(NC(=O)c4ccccc4F)ccc2CC3)cc1 [Example 97, 8-[(2-fluorobenzoyl)amino]-1-[4-(methylsulfonyl)phenyl]-4,5-dihydro-1H-benzo[g]indazole-3-carboxamide] | ≤ 1000 |
| CS(=O)(=O)c1ccc(-n2nc(C(N)=O)c3c2-c2cc(NC(=O)c4cccnc4Cl)ccc2CC3)cc1 [Example 98, 8-{[(2-chloropyridin-3-yl)carbonyl]amino}-1-[4-(methylsulfonyl)phenyl]-4,5-dihydro-1H-benzo[g]indazole-3-carboxamide] | ≤ 1000 |
| Cc1ncccc1C(=O)Nc1ccc2c(c1)-c1c(c(C(N)=O)nn1-c1ccc(S(C)(=O)=O)cc1)CC2 [Example 100] | ≤ 1000 |
| CS(=O)(=O)c1ccc(-n2nc(C(N)=O)c3c2-c2cc(NC(=O)c4cccc(F)c4F)ccc2CC3)cc1 [Example 101, 8-[(2,3-difluorobenzoyl)amino]-1-[4-(methylsulfonyl)phenyl]-4,5-dihydro-1H-benzo[g]mdazole-3-carboxamide] | ≤ 1000 |
| CS(=O)(=O)c1ccc(-n2nc(C(N)=O)c3c2-c2cc(NC(=O)c4ccccc4[N+](=O)[O-])ccc2CC3)cc1 [Example 102, 1-[4-(methylsulfonyl)phenyl]-8-[(2-nitrobenzoyl)amino]-4,5-dihydro-1H-benzo[g]indazole-3-carboxamide] | ≤ 1000 |
| CS(=O)(=O)c1ccc(-n2nc(C(N)=O)c3c2-c2cc(NC(=O)c4cccc(Cl)c4F)ccc2CC3)cc1 [Example 104, 8-[(3-chloro-2-fluorobenzoyl)amino]-1-[4-(methylsulfonyl)phenyl]-4,5-dihydro-1H-benza[g]indazole-3-carboxamide] | ≤ 1000 |
| CS(=O)(=O)c1ccc(-n2nc(C(N)=O)c3c2-c2cc(NC(=O)c4cc(Cl)ccc4Cl)ccc2CC3)cc1 [Example 108, 8-[(2,5-dichlorobenzoyl)amino]-1-[4-(methylsulfonyl)phenyl]-4,5-dihydro-1H-benzo[g]indazole-3-carboxamide] | ≤ 1000 |
| CS(=O)(=O)c1ccc(-n2nc(C(N)=O)c3c2-c2cc(NC(=O)c4ccncc4)ccc2CC3)cc1 [Example 110, 8-(isonicotinoylamino)-1-[4-(methylsulfonyl)phenyl]-4,5-dihydro-1H-benzo[g]indazole-3-carboxamide] | ≤ 1000 |
| CS(=O)(=O)c1ccc(-n2nc(C(N)=O)c3c2-c2cc(NC(=O)c4cc([N+](=O)[O-])ccc4Cl)ccc2CC3)cc1 [Example 111, 8-[(2-chloro-5-nitrobenzoyl)amino]-1-[4-(methylsulfonyl)phenyl]-4,5-dihydro-1H-benzo[g]indazole-3-carboxamide] | ≤ 1000 |
| CS(=O)(=O)c1ccc(-n2nc(C(N)=O)c3c2-c2cc(NC(=O)c4cc(N)ccc4Cl)ccc2CC3)cc1 [Example 112, 8-[(5-amino-2-chlorobenzoyl)amino]-1-[4-(methylsulfonyl)phenyl]-4,5-dihydro-1H-benzo[g]indazole-3-carboxamidehydrochloride] | ≤ 1000 |
| CS(=O)(=O)c1ccc(-n2nc(C(N)=O)c3c2-c2cc(NC(=O)c4ccc(Cl)c(N)c4)ccc2CC3)cc1 [Example 113, 8-[(3-amino-4-chlorobenzoyl)amino]-1-[4-(methylsulfonyl)phenyl]-4,5-dihydro-1H-benzo[g]indazole-3-carboxamide] | ≤ 1000 |
| CS(=O)(=O)c1ccc(-n2nc(C(N)=O)c3c2-c2cc(NC(=O)c4ccc(N)cc4Cl)ccc2CC3)cc1 [Example 114, 8-[(4-amino-2-chlorobenzoyl)amino]-1-[4-(methylsulfonyl)phenyl]-4,5-dihydro-1H-benzo[g]indazole-3-carboxamide] | ≤ 1000 |
| CS(=O)(=O)c1ccc(-n2nc(C(N)=O)c3c2-c2cc(NC(=O)c4cccc(N)c4Cl)ccc2CC3)cc1 [Example 116, 8-[(3-amino-2-chlorobenzoyl)amino]-1-[4-(methylsulfonyl)phenyl]-4,5-dihydro-1H-benzo[g]indazole-3-carboxamide] | ≤ 1000 |
| CS(=O)(=O)c1ccc(-n2nc(C(N)=O)c3c2-c2cc(NC(=O)c4ccc(Cl)cc4N)ccc2CC3)cc1 [Example 117, 8-[(2-amino-4-chlorobenzoyl)amino]-1-[4-(methylsulfonyl)phenyl]-4,5-dihydro-1H-benzo[g]indazole-3-carboxamide] | ≤ 1000 |
| CS(=O)(=O)c1ccc(-n2nc(C(N)=O)c3c2-c2cc(NC(=O)c4cccc(Cl)c4N)ccc2CC3)cc1 [Example 118, 8-[(2-amino-3-chlorobenzoyl)amino]-1-[4-(methylsulfonyl)phenyl]-4,5-dihydro-1H-benzo[g]indazole-3-carboxamide] | ≤ 1000 |
| CN(C)CC(=O)Nc1ccc(Cl)c(C(=O)Nc2ccc3c(c2)-c2c(c(C(N)=O)nn2-c2ccc(S(C)(=O)=O)cc2)CC3)c1 [Example 119, 8-({2-chloro-5-[(N,N-dimethylglycyl)amino]benzoyl}amino)-1-[4-(methylsulfonyl)phenyl]-4,5-dihydro-1H-benzo[g]indazole-3-carboxamidehydrochloride] | ≤ 1000 |
| CN(C)c1ccc(Cl)c(C(=O)Nc2ccc3c(c2)-c2c(c(C(N)=O)nn2-c2ccc(S(C)(=O)=O)cc2)CC3)c1 [Example 120, 8-{[2-chloro-5-(dimethylamino)benzoyl]amino}-1-[4-(methylsulfonyl)phenyl]-4,5-dihydro-1H-benzo[g]indazole-3-carboxamide] | ≤ 1000 |
| CS(=O)(=O)c1ccc(-n2nc(C(N)=O)c3c2-c2cc(NC(=O)c4cc(N=[N+]=[N-])ccc4[N+](=O)[O-])ccc2CC3)cc1 [Example 121, 8-[(5-azido-2-nitrobenzoyl)amino]-1-[4-(methylsulfonyl)phenyl]-4,5-dihydro-1H-benzo[g]indazole-3-carboxamide] | ≤ 1000 |
